From patent US11242337B2, “Compounds useful for treating gastrointestinal tract disorders” (Ardelyx, Inc., priority 2017, dated 2022)

What was measured:
NHE3 [1] = target: T1, NHE3 (Homo sapiens, UniProt P48764); experiment: Cell-based assay of NHE-3 activity (persistent inhibition), human; settings: human Persistence, 60 min incubation then washout
T1 construct: expressed in transfected cells
T1 sequence (P48764 26-834): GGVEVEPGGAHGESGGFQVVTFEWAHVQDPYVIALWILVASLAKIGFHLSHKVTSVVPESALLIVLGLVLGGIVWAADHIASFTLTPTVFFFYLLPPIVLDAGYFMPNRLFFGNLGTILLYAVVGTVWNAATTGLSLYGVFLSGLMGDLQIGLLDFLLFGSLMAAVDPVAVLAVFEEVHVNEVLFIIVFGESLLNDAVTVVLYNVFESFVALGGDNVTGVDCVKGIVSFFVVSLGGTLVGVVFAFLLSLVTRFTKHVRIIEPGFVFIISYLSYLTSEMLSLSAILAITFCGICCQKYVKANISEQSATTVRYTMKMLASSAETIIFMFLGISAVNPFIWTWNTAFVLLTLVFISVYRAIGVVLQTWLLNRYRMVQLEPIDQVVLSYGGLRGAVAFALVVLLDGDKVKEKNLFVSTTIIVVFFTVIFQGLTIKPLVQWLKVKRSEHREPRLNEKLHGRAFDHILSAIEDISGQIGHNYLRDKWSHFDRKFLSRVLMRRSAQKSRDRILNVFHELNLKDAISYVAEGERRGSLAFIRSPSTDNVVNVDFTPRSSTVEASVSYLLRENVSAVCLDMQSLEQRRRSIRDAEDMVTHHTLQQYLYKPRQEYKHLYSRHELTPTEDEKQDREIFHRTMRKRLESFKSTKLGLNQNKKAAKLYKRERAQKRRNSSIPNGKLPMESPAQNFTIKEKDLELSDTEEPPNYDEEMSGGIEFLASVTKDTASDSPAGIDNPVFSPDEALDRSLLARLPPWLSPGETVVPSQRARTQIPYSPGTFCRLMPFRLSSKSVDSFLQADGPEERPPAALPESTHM
T1 sequence (Q99653 2-195 partner limits assumed): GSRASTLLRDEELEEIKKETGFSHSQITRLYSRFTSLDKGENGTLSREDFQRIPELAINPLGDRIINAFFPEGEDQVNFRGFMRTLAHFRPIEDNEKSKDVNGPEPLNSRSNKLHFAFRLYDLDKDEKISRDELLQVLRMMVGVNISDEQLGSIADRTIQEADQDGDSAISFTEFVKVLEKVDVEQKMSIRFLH
In short: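 PS120 fibroblasts expressing human NHE3 with NHERF2 exposed to 0-30 μM compound for 60 min at RT, then washed out; cells acid-loaded by NH4Cl prepulse with BCECF-AM and Na+-free buffer. Na+-driven pH recovery started 10 min post-washout; initial rate of BCECF ratio change (FLIPR) taken as activity.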

NHE3 [2] = target: T1, NHE3; experiment: Cell-based assay of NHE-3 activity (pre-incubation inhibition), human; settings: human Preincubation; for pIC50: 0-30 μM test compound
In short: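 PS120 fibroblasts stably expressing human NHE3 and NHERF2, loaded 30 min at 37 °C with 5 μM BCECF-AM in NH4Cl buffer, then acidified 10 min at room temperature in Na+-free buffer with 0–30 μM compound. Initial rate of BCECF fluorescence ratio change (FLIPR) per minute taken as Na+/H+ activity.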

| Compound | % inhibition (NHE3 [1]) | % inhibition (NHE3 [2]) | pIC50 (NHE3 [1]) | pIC50 (NHE3 [2]) |
| --- | --- | --- | --- | --- |
| O=C(NCCCCNC(=O)NCCOCCOCCNS(=O)(=O)c1ccc(O[C@H]2c3cc(Cl)cc(Cl)c3C[C@@H]2N2CCNCC2)c(F)c1)NCCOCCOCCNS(=O)(=O)c1ccc(O[C@H]2c3cc(Cl)cc(Cl)c3C[C@@H]2N2CCNCC2)c(F)c1 [Example 33, 3-[2-(2-[2-[(4-[[(1S,2S)-4,6-Dichloro-2-(piperazin-1-yl)-2,3-dihydro-1H-inden-1-yl]oxy]-3-fluorobenzene)sulfonamido]ethoxy]ethoxy)ethyl]-1-[4-[[(2-(2-[2-[(4-[[(1S,2S)-4,6-dichloro-2-(piperazin-1-yl)-2,3-dihydro-1H-inden-1-y]oxy]-3-fluorobenzene)sulfonamido]ethoxy]ethoxy)ethyl]carbamoyl]amino)butyl]urea; bis(trifluoroacetic acid)] | C (>70%) | C (>70%) |  |  |
| 3-[2-(2-[2-[(4-[[(1S,2S)-4,6-Dichloro-2-[(3R)-3-[methyl(propan-2-yl)amino]piperidin-1-yl]-2,3-dihydro-1H-inden-1-yl]oxy]benzene) sulfonamido]ethoxy]ethoxy)ethyl]-1-[4-([[2-(2-[2-[(4-[[(1S,2S)-4,6-dichloro-2-[(3R)-3-[methyl(propan-2-yl)amino]piperidin-1-yl]-2,3-dihydro-1H-inden-1-yl]oxy]benzene)sulfonamido]ethoxy]ethoxy)ethyl]carbamoyl]amino)butyl]urea; bis(trifluoroacetic acid) [Example 78] | C (>70%) | C (>70%) |  |  |
| Cc1cc(Cl)cc2c1C[C@H](N(C)C)[C@H]2Oc1ccc(S(=O)(=O)NCCOCCOCCNC(=O)NCCCCNC(=O)NCCOCCOCCNS(=O)(=O)c2ccc(O[C@H]3c4cc(Cl)cc(C)c4C[C@@H]3N(C)C)c(F)c2)cc1F [Example 24, 3-[2-(2-[2-[(4-[[(1S,2S)-6-Chloro-2-(dimethylamino)-4-methyl-2,3-dihydro-1H-inden-1-yl]oxy]-3-fluorobenzene)sulfonamido]ethoxy]ethoxy)ethyl]-1-[4-([[2-(2-[2-[(4-[[(1S,2S)-6-chloro-2-(dimethylamino)-4-methyl-2,3-dihydro-1H-inden-1-yl]oxy]-3-fluorobenzene)sulfonamido]ethoxy]ethoxy)ethyl]carbamoyl]amino)butyl]urea] | C (>70%) | C (>70%) |  |  |
| Cc1cc(S(=O)(=O)N2CC[C@@H](COCCOCCNC(=O)NCCCCNC(=O)NCCOCCOC[C@@H]3CCN(S(=O)(=O)c4ccc(O[C@H]5c6cc(Cl)cc(Cl)c6C[C@@H]5N(C)C)c(C)c4)C3)C2)ccc1O[C@H]1c2cc(Cl)cc(Cl)c2C[C@@H]1N(C)C [Example 45, 3-[2-(2-[[(3R)-1-[(4-[[(1S,2S)-4,6-Dichloro-2-(dimethylamino)-2,3-dihydro-1H-inden-1-yl]oxy]-3-methylbenzene)sulfonyl]pyrrolidin-3-yl]methoxy]ethoxy)ethyl]-1-[4-([[2-(2[[(3R)-1-[(4-[[(1S,2S)-4,6-dichloro-2-(dimethylamino)-2,3-dihydro-1H-inden-1-yl]oxy]-3-methylbenzene)sulfonyl]pyrrolidin-3-yl]methoxy]ethoxy)ethyl]carbamoyl]amino)butyl]urea; bis(trifluoroacetic acid)] | C (>70%) | C (>70%) | C (NHE3 pIC50 > 7) | C (NHE3 pIC50 > 7) |
| Cc1cc(S(=O)(=O)N[C@H]2CCN(CCOCCNC(=O)NCCCCNC(=O)NCCOCCN3CC[C@H](NS(=O)(=O)c4ccc(O[C@H]5c6cc(Cl)cc(Cl)c6C[C@@H]5N(C)C)c(C)c4)C3)C2)ccc1O[C@H]1c2cc(Cl)cc(Cl)c2C[C@@H]1N(C)C [Example 52, 3-(2-[2-[(3S)-3-[(4-[[(1S,2S)-4,6-Dichloro-2-(dimethylamino)-2,3-dihydro-1H-inden-1-yl]oxy]-3-methylbenzene)sulfonamido]pyrrolidin-1-yl]ethoxy]ethyl)-1-(4-[[(2-[2-[(3S)-3-[(4-[[(1S,2S)-4,6-dichloro-2-(dimethylamino)-2,3-dihydro-1H-inden-1-yl]oxy]-3-methylbenzene)sulfonamido]pyrrolidin-1-yl]ethoxy]ethyl)carbamoyl]amino]butyl)urea] | C (>70%) | C (>70%) | C (NHE3 pIC50 > 7) | C (NHE3 pIC50 > 7) |
| N#Cc1cc(Cl)cc2c1C[C@H](N1CCNCC1)[C@H]2Oc1ccc(S(=O)(=O)N[C@H]2CCN(C(=O)CCCNC(=O)NCCCCNC(=O)NCCCC(=O)N3CC[C@H](NS(=O)(=O)c4ccc(O[C@H]5c6cc(Cl)cc(C#N)c6C[C@@H]5N5CCNCC5)cc4)C3)C2)cc1 [Example 143, 4-([(1S,2S)-6-Chloro-4-cyano-2-(piperazin-1-yl)-2,3-dihydro-1H-inden-1-yl]oxy)-N—[(S)-1-(18-[(S)-3-([4-([(1S,2S)-6-chloro-4-cyano-2-(piperazin-1-yl)-2,3-dihydro-1H-inden-1-yl]oxy)phenyl]sulfonamido)pyrrolidin-1-yl]-6,13,18-trioxo-5,7,12,14-tetraazaoctadecanoyl)pyrrolidin-3-yl]benzenesulfonamide] | C (>70%) | C (>70%) | C (NHE3 pIC50 > 7) | C (NHE3 pIC50 > 7) |
| N#Cc1cc(Cl)cc2c1C[C@H](N1CCNCC1)[C@H]2Oc1ccc(S(=O)(=O)NCCOCCOCCNC(=O)NCCCCNC(=O)NCCOCCOCCNS(=O)(=O)c2ccc(O[C@H]3c4cc(Cl)cc(C#N)c4C[C@@H]3N3CCNCC3)cc2)cc1 [Example 41, 3-[2-(2-[2-[(4-[[(1S,2S)-6-Chloro-4-cyano-2-(piperazin-1-yl)-2,3-dihydro-1H-inden-1-yl]oxy]benzene)sulfonamido]ethoxy]ethoxy)ethyl]-1-[4-([[2-(2-[2-[(4-[[(1S,2S)-6-chloro-4-cyano-2-(piperazin-1-yl)-2,3-dihydro-1H-inden-1-yl]oxy]benzene)sulfonamido]ethoxy]ethoxy)ethyl]carbamoyl]amino)butyl]urea; bis(trifluoroacetic acid)] | C (>70%) | C (>70%) | C (NHE3 pIC50 > 7) | C (NHE3 pIC50 > 7) |
| N#Cc1cc(Cl)cc2c1C[C@H](N1CCNCC1)[C@H]2Oc1ccc(S(=O)(=O)NC2CCN(CCOCCNC(=O)NCCCCNC(=O)NCCOCCN3CCC(NS(=O)(=O)c4ccc(O[C@H]5c6cc(Cl)cc(C#N)c6C[C@@H]5N5CCNCC5)cc4)CC3)CC2)cc1 [Example 123, 4-([(1S,2S)-6-Chloro-4-cyano-2-(piperazin-1-yl)-2,3-dihydro-1H-inden-1-yl]oxy)-N-[1-(20-[4-([4-([(1S,2S)-6-chloro-4-cyano-2-(piperazin-1-yl)-2,3-dihydro-1H-inden-1-yl]oxy)phenyl]sulfonamide]piperidin-1-yl)-7,14-dioxo-3,18-dioxa-6,8,13,15-tetraazaicosyl]piperidin-4-yl)benzenesulfonamide] | C (>70%) | C (>70%) | C (NHE3 pIC50 > 7) | C (NHE3 pIC50 > 7) |
| Cc1cc(S(=O)(=O)N[C@H]2CCN(CCOCCNC(=O)NCCCCNC(=O)NCCOCCN3CC[C@H](NS(=O)(=O)c4ccc(O[C@H]5c6cc(Cl)cc(Cl)c6C[C@@H]5N(C)C)c(C)c4)C3=O)C2=O)ccc1O[C@H]1c2cc(Cl)cc(Cl)c2C[C@@H]1N(C)C [Example 91, 1-(2-[2-[(3S)-3-[(4-[[(1S,2S)-4,6-Dichloro-2-(dimethylamino)-2,3-dihydro-1H-inden-1-yl]oxy]-3-methylbenzene)sulfonamido]-2-oxopyrrolidin-1-yl]ethoxy]ethyl)-3-(4-[[(2-[2-[(3S)-3-[(4-[[(1S,2S)-4,6-dichloro-2-(dimethylamino)-2,3-dihydro-1H-inden-1-yl]oxy]-3-methylbenzene)sulfonamido]-2-oxopyrrolidin-1-yl]ethoxy]ethyl)carbamoyl]amino]butyl)urea] | C (>70%) | C (>70%) | C (NHE3 pIC50 > 7) | C (NHE3 pIC50 > 7) |
